{
  "source": "ChEMBL document CHEMBL3822377",
  "about": "“Locking PDK1 in DFG-out conformation through 2-oxo-indole containing molecules: Another tools to fight glioblastoma” (Eur J Med Chem, 2016)",
  "key": {"[1]": {"molecular_target": "T1, 3-phosphoinositide-dependent protein kinase 1 (Homo sapiens) (UniProt O15530)", "T1 sequence (whole entry)": "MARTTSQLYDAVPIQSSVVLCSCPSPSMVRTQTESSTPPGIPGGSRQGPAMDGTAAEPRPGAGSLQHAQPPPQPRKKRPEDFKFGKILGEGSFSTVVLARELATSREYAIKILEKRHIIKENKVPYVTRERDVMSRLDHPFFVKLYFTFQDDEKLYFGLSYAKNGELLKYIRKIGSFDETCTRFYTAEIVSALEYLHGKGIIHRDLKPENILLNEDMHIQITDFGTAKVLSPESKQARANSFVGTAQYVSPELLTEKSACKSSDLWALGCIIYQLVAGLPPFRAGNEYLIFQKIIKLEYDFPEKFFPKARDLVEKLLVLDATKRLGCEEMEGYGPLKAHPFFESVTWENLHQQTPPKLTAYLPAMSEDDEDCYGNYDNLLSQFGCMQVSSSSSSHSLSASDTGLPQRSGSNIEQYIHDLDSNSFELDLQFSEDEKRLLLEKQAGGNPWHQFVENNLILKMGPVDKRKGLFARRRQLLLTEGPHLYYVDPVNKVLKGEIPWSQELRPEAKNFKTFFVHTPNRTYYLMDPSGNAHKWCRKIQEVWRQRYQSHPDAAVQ", "experiment": "Inhibition of PDK1 in human GSC cells assessed as reduction in AKT phosphorylation at Thr308 residue at 10 uM measured at 120 mins by ELISA relative to control", "assay_type": "cell-based"}, "[2]": {"molecular_target": "Dual specificity protein kinase CLK1 (Homo sapiens) (UniProt P49759)", "sequence (P49759 whole entry, looked up)": "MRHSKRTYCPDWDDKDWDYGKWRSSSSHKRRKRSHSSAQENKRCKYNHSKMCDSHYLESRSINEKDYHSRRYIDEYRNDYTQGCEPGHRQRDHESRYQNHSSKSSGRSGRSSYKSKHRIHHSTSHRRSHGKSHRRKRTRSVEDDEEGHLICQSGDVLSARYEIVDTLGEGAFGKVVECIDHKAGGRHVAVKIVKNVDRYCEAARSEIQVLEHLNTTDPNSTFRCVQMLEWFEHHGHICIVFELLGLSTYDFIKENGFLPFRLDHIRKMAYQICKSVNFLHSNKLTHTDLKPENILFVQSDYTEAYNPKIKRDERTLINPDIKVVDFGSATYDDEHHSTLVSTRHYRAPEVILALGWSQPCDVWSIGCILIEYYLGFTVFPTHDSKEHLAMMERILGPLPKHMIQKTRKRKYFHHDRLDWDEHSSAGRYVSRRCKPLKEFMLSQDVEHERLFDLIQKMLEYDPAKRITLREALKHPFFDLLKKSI", "experiment": "Inhibition of GST-tagged human CLK1 expressed in Escherichia coli at 100 nM by Z-lyte assay"}, "[3]": {"molecular_target": "Inhibitor of nuclear factor kappa-B kinase subunit alpha (Homo sapiens) (UniProt O15111)", "experiment": "Inhibition of His-tagged full-length human IKKalpha expressed in baculovirus system at 100 nM by adapta assay"}, "[4]": {"molecular_target": "Serine/threonine-protein kinase MRCK alpha (Homo sapiens) (UniProt Q5VT25)", "experiment": "Inhibition of His-tagged human CDC42 BPA expressed in baculovirus system at 100 nM by Z-lyte assay"}, "[5]": {"molecular_target": "Rho-associated protein kinase 1 (Homo sapiens) (UniProt Q13464)", "sequence (Q13464 2-1354 limits assumed)": "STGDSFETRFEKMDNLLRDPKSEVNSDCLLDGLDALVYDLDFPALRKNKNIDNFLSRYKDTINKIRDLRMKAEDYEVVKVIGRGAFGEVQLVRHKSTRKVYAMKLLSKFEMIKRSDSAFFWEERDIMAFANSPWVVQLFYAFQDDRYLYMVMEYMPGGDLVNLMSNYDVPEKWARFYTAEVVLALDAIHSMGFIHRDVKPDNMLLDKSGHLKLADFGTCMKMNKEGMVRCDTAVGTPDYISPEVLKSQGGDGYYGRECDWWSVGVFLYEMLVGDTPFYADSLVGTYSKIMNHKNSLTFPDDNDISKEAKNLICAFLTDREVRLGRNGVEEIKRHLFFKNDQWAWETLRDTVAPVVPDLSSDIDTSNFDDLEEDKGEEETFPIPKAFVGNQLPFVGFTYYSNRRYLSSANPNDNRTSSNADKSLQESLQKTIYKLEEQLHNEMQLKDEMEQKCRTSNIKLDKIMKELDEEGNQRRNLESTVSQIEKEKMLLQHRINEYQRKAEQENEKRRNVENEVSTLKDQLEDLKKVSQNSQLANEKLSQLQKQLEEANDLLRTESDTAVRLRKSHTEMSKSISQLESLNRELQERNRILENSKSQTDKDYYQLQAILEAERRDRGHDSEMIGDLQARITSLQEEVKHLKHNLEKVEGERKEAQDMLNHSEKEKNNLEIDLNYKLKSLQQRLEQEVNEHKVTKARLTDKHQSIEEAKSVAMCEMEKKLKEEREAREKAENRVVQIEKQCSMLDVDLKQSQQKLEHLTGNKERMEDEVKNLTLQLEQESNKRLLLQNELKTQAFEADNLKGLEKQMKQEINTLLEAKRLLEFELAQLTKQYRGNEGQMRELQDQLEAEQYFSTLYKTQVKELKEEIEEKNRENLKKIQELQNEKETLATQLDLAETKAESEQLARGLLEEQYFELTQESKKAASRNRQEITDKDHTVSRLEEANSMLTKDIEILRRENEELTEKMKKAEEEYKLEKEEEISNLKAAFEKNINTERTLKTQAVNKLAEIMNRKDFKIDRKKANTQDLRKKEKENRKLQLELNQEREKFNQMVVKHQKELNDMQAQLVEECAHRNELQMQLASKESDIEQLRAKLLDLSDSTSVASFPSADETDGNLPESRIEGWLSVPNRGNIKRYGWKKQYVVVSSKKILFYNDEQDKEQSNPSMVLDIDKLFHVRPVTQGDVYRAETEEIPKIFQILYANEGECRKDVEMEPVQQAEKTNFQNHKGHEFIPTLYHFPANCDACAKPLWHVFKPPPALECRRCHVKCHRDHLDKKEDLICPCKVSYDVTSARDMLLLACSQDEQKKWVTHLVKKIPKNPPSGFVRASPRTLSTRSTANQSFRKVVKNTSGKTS", "experiment": "Inhibition of catalytic GST-tagged human ROCK1 expressed in baculovirus system at 100 nM by Z-lyte assay"}, "[6]": {"molecular_target": "Aurora kinase A (Homo sapiens) (UniProt O14965)", "sequence (O14965 whole entry)": "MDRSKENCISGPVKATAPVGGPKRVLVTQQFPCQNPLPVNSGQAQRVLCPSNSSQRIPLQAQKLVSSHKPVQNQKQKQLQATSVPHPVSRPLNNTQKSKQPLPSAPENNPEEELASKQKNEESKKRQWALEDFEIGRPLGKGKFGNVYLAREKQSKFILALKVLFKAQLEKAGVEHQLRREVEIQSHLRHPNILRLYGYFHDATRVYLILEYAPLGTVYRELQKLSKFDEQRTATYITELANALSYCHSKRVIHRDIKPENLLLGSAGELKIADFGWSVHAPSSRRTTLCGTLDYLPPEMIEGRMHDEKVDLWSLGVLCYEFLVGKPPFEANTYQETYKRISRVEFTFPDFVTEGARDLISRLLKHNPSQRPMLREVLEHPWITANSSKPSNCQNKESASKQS", "experiment": "Inhibition of His-tagged full-length recombinant human Aurora A expressed in baculovirus system at 100 nM by Z-lyte assay"}, "[7]": {"molecular_target": "Protein kinase C delta type (Homo sapiens) (UniProt Q05655)", "experiment": "Inhibition of full-length recombinant human PRKCD expressed in baculovirus system at 100 nM by Z-lyte assay"}, "[8]": {"molecular_target": "Dual specificity mitogen-activated protein kinase kinase 2 (Homo sapiens) (UniProt P36507)", "sequence (P36507 whole entry)": "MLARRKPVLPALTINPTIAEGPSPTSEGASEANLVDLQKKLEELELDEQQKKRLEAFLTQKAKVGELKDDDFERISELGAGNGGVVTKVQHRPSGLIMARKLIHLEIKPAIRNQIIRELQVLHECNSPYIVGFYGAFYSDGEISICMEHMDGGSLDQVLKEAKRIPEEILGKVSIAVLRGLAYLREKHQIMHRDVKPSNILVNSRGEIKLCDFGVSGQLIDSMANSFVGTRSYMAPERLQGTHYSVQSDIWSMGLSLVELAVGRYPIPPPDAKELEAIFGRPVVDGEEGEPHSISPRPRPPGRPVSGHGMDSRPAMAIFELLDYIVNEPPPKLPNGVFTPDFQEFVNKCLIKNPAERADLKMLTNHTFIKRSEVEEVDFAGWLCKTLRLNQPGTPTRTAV", "experiment": "Inhibition of His-tagged full-length recombinant human MAP2K2 expressed in baculovirus system at 100 nM by Z-lyte assay"}, "[9]": {"molecular_target": "Mitogen-activated protein kinase 3 (Homo sapiens) (UniProt P27361)", "experiment": "Inhibition of GST-tagged full-length recombinant human MAPK3 expressed in baculovirus system at 100 nM by Z-lyte assay"}, "[10]": {"molecular_target": "Protein kinase C epsilon type (Homo sapiens) (UniProt Q02156)", "experiment": "Inhibition of full-length recombinant human PRKCE expressed in baculovirus system at 100 nM by Z-lyte assay"}, "[11]": {"molecular_target": "Calcium/calmodulin-dependent protein kinase type II subunit alpha (Homo sapiens) (UniProt Q9UQM7)", "experiment": "Inhibition of His-tagged full-length human CaMKII alpha expressed in baculovirus system at 100 nM by Z-lyte assay"}, "[12]": {"molecular_target": "Ribosomal protein S6 kinase alpha-1 (Homo sapiens) (UniProt Q15418)", "experiment": "Inhibition of His-tagged full-length recombinant human RSK1 expressed in baculovirus system at 100 nM by Z-lyte assay"}, "[13]": {"molecular_target": "RAC-beta serine/threonine-protein kinase (Homo sapiens) (UniProt P31751)", "sequence (P31751 whole entry)": "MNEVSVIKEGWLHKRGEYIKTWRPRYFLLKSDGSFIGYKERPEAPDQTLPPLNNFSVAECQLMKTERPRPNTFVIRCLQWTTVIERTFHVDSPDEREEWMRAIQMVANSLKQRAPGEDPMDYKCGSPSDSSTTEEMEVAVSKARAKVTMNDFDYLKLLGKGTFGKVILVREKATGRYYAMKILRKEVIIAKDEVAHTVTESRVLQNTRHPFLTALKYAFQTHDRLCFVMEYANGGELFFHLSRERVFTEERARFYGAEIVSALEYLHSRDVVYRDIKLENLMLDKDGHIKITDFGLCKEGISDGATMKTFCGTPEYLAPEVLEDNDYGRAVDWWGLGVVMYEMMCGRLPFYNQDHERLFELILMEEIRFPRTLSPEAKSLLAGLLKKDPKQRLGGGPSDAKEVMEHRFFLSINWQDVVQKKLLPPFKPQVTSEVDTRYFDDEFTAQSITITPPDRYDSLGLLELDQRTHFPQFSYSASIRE", "experiment": "Inhibition of His-tagged full-length human AKT2 expressed in baculovirus system at 100 nM by Z-lyte assay"}, "[14]": {"molecular_target": "Protein kinase C alpha type (Homo sapiens) (UniProt P17252)", "experiment": "Inhibition of His-tagged full-length human PRKACA expressed in Escherichia coli system at 100 nM by Z-lyte assay"}, "[15]": {"molecular_target": "Casein kinase I isoform alpha (Homo sapiens) (UniProt P48729)", "experiment": "Inhibition of GST-tagged human CSNK1A1 expressed in baculovirus system at 100 nM by Z-lyte assay"}, "[16]": {"molecular_target": "T1, 3-phosphoinositide-dependent protein kinase 1 (Homo sapiens)", "experiment": "Inhibition of PDK1 in human GSC cells assessed as reduction in AKT phosphorylation at Thr308 residue at 10 uM by ELISA relative to control", "assay_type": "cell-based", "conditions": "TDE = time-dependent effect"}, "[17]": {"molecular_target": "Serine/threonine-protein kinase Chk2 (Homo sapiens) (UniProt O96017)", "sequence (O96017 whole entry)": "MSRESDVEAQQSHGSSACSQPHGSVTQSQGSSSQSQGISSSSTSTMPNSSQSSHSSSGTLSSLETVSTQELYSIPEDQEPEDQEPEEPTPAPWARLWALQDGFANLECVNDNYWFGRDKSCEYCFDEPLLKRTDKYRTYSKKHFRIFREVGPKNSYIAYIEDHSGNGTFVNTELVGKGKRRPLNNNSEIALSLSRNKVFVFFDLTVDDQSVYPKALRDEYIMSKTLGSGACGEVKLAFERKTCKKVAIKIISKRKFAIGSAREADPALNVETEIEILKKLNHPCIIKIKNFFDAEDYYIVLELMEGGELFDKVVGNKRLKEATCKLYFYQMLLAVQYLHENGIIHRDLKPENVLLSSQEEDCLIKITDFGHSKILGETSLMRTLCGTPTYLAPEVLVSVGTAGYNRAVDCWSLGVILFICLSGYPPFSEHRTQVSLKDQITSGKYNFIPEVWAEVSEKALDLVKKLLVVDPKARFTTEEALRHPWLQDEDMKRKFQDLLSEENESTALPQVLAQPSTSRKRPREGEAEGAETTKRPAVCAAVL", "experiment": "Inhibition of His-tagged full-length human CHEK2 expressed in baculovirus system at 100 nM by Z-lyte assay"}, "[18]": {"tested_on": "RAF proto-oncogene serine/threonine-protein kinase (Homo sapiens), P04049 [Y340D,Y341D]", "experiment": "Inhibition of catalytic GST-tagged human RAF1 Y340D/Y341D double mutant expressed in baculovirus system at 100 nM by Z-lyte assay"}, "[19]": {"molecular_target": "Serine/threonine-protein kinase PAK 6 (Homo sapiens) (UniProt Q9NQU5)", "sequence (Q9NQU5 whole entry, looked up)": "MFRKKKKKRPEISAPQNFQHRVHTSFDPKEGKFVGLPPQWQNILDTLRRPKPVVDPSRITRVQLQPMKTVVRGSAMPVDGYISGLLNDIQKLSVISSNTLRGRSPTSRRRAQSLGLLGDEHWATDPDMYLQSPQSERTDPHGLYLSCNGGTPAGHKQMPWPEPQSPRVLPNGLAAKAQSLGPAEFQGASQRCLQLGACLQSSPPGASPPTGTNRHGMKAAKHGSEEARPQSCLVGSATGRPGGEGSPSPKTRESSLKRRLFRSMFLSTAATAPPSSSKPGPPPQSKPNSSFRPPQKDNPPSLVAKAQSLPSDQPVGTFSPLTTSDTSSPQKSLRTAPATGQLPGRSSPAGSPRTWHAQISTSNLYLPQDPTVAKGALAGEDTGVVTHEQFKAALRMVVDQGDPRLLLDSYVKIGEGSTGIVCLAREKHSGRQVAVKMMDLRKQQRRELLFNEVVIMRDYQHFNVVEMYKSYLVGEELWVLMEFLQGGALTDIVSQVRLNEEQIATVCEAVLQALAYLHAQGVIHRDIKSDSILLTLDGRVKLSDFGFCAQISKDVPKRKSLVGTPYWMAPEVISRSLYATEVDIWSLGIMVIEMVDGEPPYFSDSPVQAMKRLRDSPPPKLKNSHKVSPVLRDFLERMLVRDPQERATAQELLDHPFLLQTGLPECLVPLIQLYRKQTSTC", "experiment": "Inhibition of His-tagged full-length recombinant human PAK6 expressed in baculovirus system at 100 nM by Z-lyte assay"}, "[20]": {"molecular_target": "CDK7/Cyclin H/MNAT1 (Homo sapiens) (UniProt P51946+P50613+P51948)", "experiment": "Inhibition of His-tagged full-length human recombinant CDK7/Cyclin H/MNAT1 expressed in baculovirus system at 100 nM by adapta assay"}, "[21]": {"molecular_target": "Casein kinase I isoform gamma-1 (Homo sapiens) (UniProt Q9HCP0)", "experiment": "Inhibition of GST-tagged full-length human CSNK1G1 expressed in baculovirus system at 100 nM by Z-lyte assay"}},
  "data": [
    {"molecule": "O=C(CNC(=O)c1cccn(Cc2ccc(F)c(F)c2)c1=O)Nc1ccc2c(c1)/C(=C/c1cnc[nH]1)C(=O)N2", "values": [
      {"measurement": "inhibition", "setting": "[1]", "value": 80.4, "unit": "%"},
      {"measurement": "inhibition", "setting": "[2]", "value": -2, "unit": "%"},
      {"measurement": "inhibition", "setting": "[3]", "value": 3, "unit": "%"},
      {"measurement": "inhibition", "setting": "[4]", "value": -3, "unit": "%"},
      {"measurement": "inhibition", "setting": "[5]", "value": -7, "unit": "%"},
      {"measurement": "inhibition", "setting": "[6]", "value": 38, "unit": "%"},
      {"measurement": "inhibition", "setting": "[7]", "value": -7, "unit": "%"},
      {"measurement": "inhibition", "setting": "[8]", "value": 9, "unit": "%"},
      {"measurement": "inhibition", "setting": "[9]", "value": -3, "unit": "%"},
      {"measurement": "inhibition", "setting": "[10]", "value": 3, "unit": "%"},
      {"measurement": "inhibition", "setting": "[11]", "value": 0, "unit": "%"},
      {"measurement": "inhibition", "setting": "[12]", "value": 2, "unit": "%"},
      {"measurement": "inhibition", "setting": "[13]", "value": -4, "unit": "%"},
      {"measurement": "inhibition", "setting": "[14]", "value": -5, "unit": "%"},
      {"measurement": "inhibition", "setting": "[15]", "value": -2, "unit": "%"},
      {"measurement": "inhibition", "setting": "[16]", "value": "tde"},
      {"measurement": "inhibition", "setting": "[17]", "value": 4, "unit": "%"},
      {"measurement": "inhibition", "setting": "[18]", "value": 10, "unit": "%"},
      {"measurement": "inhibition", "setting": "[19]", "value": -4, "unit": "%"},
      {"measurement": "inhibition", "setting": "[20]", "value": 1, "unit": "%"},
      {"measurement": "inhibition", "setting": "[21]", "value": 3, "unit": "%"}
    ]}
  ]
}
